Results from patent publication US10640507B2, “PBD antibacterial agents” (KING'S COLLEGE LONDON, priority 2015, dated 2020).
In brackets after ≈: the same amount, converted by molar mass. Where two headings read alike, the source gives them in different places.

Experiments:
PA01 = test: Effect of efflux pump inhibitors (EPIs) on MIC; format: cell-based, P. aeruginosa; conditions: for +PABN MIC: PABN at 25 μg/ml; for MIC: Pseudomonas aeruginosa
Description: (§1) 1. Grow up cultures of bacterial strains to be tested overnight.
(§2) 2. Dilute down overnight cultures to concentration of 1×10^6 bacteria/ml (OD0.01) in Tryptic soy broth (TSB).
(§3) 3. Add 100 μl of TSB media to column 2-column 12 in 96 well plate (keeping column 1 clear).
(§4) 4. Make up compound to a concentration of 64 μg/ml in water.
(§5) 5. Add 100 μl of antibiotic solution to the 1st and 2nd columns.
(§6) 6. Using a multichannel pipette take 100 μl from the 2nd column wells and pipette into 3rd column wells and repeat down the 96 well plate (remember to include controls i.e. uninfected media and media with no antibiotic).
(§7) 7. To each well (except uninfected control row H) add 50 μl/well of EPI at 4× final concentration in TSB.
(§8) 9. In wells used to test the effect of the EPI carbonyl cyanide 3-chlorophenylhydrazone (CCCP) the CCCP is added at 10 μg/ml final concentration.
(§9) 10. In wells used to test the effect of the EPI phenylalanine-arginine β-naphthylamide (PABN) the PABN is added at 25 μg/ml final concentration.
(§10) 11. In wells used to test the effect of the PABN+Mg, the PABN is added at 25 μg/ml final concentration, with 1 mM MgSO4 in TSB.
(§11) 12. Wrap plate with parafilm to prevent evaporation.
(§12) 13. Leave at desired temperature (37° C. unless specified elsewhere) for 20 hours.
(§13) 14. Next day check plates for growth and measure optical density (i.e. absorbance) at a wavelength of 600 nm (OD600).
(§14) Compound KMR-14-33 was tested against a range of bacterial species using the above protocol. Compound PP-A148 was also tested against a more limited range of bacterial species using the above protocol. For KMR-14-33 measurements were carried out for the compound alone, for the compound plus CCCP, for the compound plus PABN and for the compound plus PABN and plus Mg. For PP-A148 measurements were carried out for the compound alone and for the compound plus PABN.

NCTC 13437 = test: Effect of efflux pump inhibitors (EPIs) on MIC; format: cell-based, P. aeruginosa; conditions: for +PABN MIC: PABN at 25 μg/ml; for MIC: Pseudomonas aeruginosa
Description: as §1, §2, §3, §4, §5, §6, §7, §8, §9, §10, §11, §12, §13, §14

M6 = test: Effect of efflux pump inhibitors (EPIs) on MIC; format: cell-based, K. pneumoniae; conditions: for MIC: Klebsiella pneumoniae; for +PABN MIC: PABN at 25 μg/ml
Description: as §1, §2, §3, §4, §5, §6, §7, §8, §9, §10, §11, §12, §13, §14

NCTC 13368 = test: Effect of efflux pump inhibitors (EPIs) on MIC; format: cell-based, K. pneumoniae; conditions: for MIC: Klebsiella pneumoniae; for +PABN MIC: PABN at 25 μg/ml
Description: as §1, §2, §3, §4, §5, §6, §7, §8, §9, §10, §11, §12, §13, §14

[1] = tested on: A. baumannii - NCTC 17978; test: Time kill kinetics; format: cell-based; conditions: drug at 4×MIC
Description: 1. Grow bacteria overnight.
2. Subculture into an autoclaved conical flask containing 10 ml of TSB to an OD of 0.01 (˜1×10^7 Cfu/ml for KP-M6).
4. Take aliquots (100 μl) at timepoints (0, 1, 2, 4, 6, 24 hours) and carry out a serial dilution in PBS (to remove drug and to dilute bacteria to countable numbers).
5. Use the serial dilution to perform a Miles Misra—i.e. Add 3×10 μl spots of each dilution onto an agar plate. Incubate overnight and count colonies on spots in the morning.
6. Control: Subculture bacteria alongside samples but with no antibiotic added. Take aliquots from this at every time point (0, 1, 2, 4, 6, 24 hours) and perform Miles Misra on these too (as detailed in points 4 and 5 above).
7. After the first experiment, if the counts seen on Miles-Misra were zero, total viable counts were determined by spreading 200 μl in a streak down the centre of a TSB agar plate, waiting for the liquid to be absorbed and then spreading over the plate and checking for growth inhibition at the sight of the original streak.
8. The compound is considered bactericidal if the inoculum was reduced >3 log10 CFU/ml and bacteriostatic if inoculum was reduced by 0-3 log10 CFU/ml.
Three measurements were taken for each compound at each time point. These measurements were averaged and the standard deviation was also calculated.

NCTC 17978 = test: Effect of efflux pump inhibitors (EPIs) on MIC; format: cell-based, A. bauamnnii; conditions: for +PABN MIC: PABN at 25 μg/ml
Description: as §1, §2, §3, §4, §5, §6, §7, §8, §9, §10, §11, §12, §13, §14

AYE = test: Effect of efflux pump inhibitors (EPIs) on MIC; format: cell-based, A. bauamnnii; conditions: for +PABN MIC: PABN at 25 μg/ml
Description: as §1, §2, §3, §4, §5, §6, §7, §8, §9, §10, §11, §12, §13, §14

Psueudomonas GH12 = test: General MIC protocol, Gram negative; format: cell-based; conditions: Pseudomonas
Description: General Minimum Inhibitory Concentration (MIC) Protocol
as §1, §2, §3
4. Make up compound to a concentration of 64 μg/ml in water (or alternatively to twice the chosen maximum concentration to be tested).
as §5
6. Using a multichannel pipette take 100 μl from the 2nd column wells and pipette into 3rd column wells and repeat down the 96 well plate (remembering to include controls i.e. uninfected media and media with no antibiotic).
7. To each well (except uninfected control row H) add 100 μl of bacterially infected media at a concentration of 1×10^6/ml.
8. This dilutes down the concentration of the antibiotic by half (top dose is therefore 32 μg/ml in column 1) and also gives you a starting bacterial concentration of 5×10^5/ml.
9. Wrap plate with parafilm to prevent evaporation.
10. Leave at desired temperature (37° C. unless specified elsewhere) for 20 hours.
11. Next day check plates for growth and measure optical density (i.e. absorbance) at a wavelength of 600 nm (OD600).
An example of such a plate is shown in FIG. 1 where column A represents wells that receive the top dose 100 μl; column B represents wells that receive the top dose 100 μl+100 μl TSB; and column C represents wells that receive 100 μl TSB. Row H which is marked by a box labelled D represents a blank where the cells receive no bacteria.
The activity of the compound designated PP-A148 was tested against an extended panel of Klebsiella and Pseudomonas Gram-negative bacterial strains that have proven drug resistant difficult to treat. […] The minimum inhibitory concentration (MIC) was measured using the general MIC protocol given above.

[2] = PABN at 25 μg/ml with 1 mM MgSO4
[3] = CCCP at 10 μg/ml, read-out: +CCCP MIC
[4] = no EPI, read-out: Control with no EPI MIC
[5] = NCTC13437, read-out: Control with no EPI MIC
[6] = read-out: Control with no EPI MIC
[7] = NCTC13368, read-out: Control with no EPI MIC

Compound: COc1cc2c(cc1OCCCC(=O)Nc1cc(C(=O)Nc3ccc4sc(C(=O)N(C)C)cc4c3)n(C)c1)N=C[C@@H]1CCCN1C2=O [KMR-14-33, (S)—N-(2-(dimethylcarbamoyl)benzo[b]thiophen-5-yl)-4-(4-((7-methoxy-5-oxo-2,3,5,11a-tetrahydro-1H-benzo[e]pyrrolo[1,2-a][1,4]-diazepin-8-yl)oxy)butanamido)-1-methyl-1H-pyrrole-2-carboxamide]
- +PABN MIC (PA01): 4 µg/mL
- +PABN + Mg MIC (PA01; [2]): 2 µg/mL
- MIC (PA01; [3]): > 32 µg/mL
- MIC (PA01; [4]): > 32 µg/mL
- +PABN MIC (NCTC 13437; NCTC 13437): 16 µg/mL
- +PABN + Mg MIC (NCTC 13437; NCTC 13437, PABN at 25 μg/ml with 1 mM MgSO4): 16 µg/mL
- MIC (NCTC 13437; NCTC13437, read-out: +CCCP MIC): > 32 µg/mL
- MIC (NCTC 13437; [5]): > 32 µg/mL
- MIC (M6; read-out: +CCCP MIC): 0.125 µg/mL (≈ 0.19 µM)
- MIC (M6; [6]): 1 µg/mL (≈ 1.52 µM)
- +PABN MIC (M6; M6): 0.125 µg/mL
- +PABN + Mg MIC (M6; M6, PABN at 25 μg/ml with 1 mM MgSO4): 0.25 µg/mL
- MIC (NCTC 13368; NCTC13368, read-out: +CCCP MIC): 2 µg/mL (≈ 3.05 µM)
- MIC (NCTC 13368; [7]): 2 µg/mL (≈ 3.05 µM)
- +PABN MIC (NCTC 13368; NCTC 13368): 1 µg/mL
- +PABN + Mg MIC (NCTC 13368; NCTC 13368, PABN at 25 μg/ml with 1 mM MgSO4): 0.5 µg/mL
- Average (CFU/ml) ([1]; time-point 1 hours): 0 CFU/ml
- n = 1 (Log CFU/ml) ([1]; time-point 1 hours): 0 Log CFU/ml
- n = 2 (Log CFU/ml) ([1]; time-point 1 hours): 0 Log CFU/ml
- n = 3 (Log CFU/ml) ([1]; time-point 1 hours): 0 Log CFU/ml
- Average (CFU/ml) ([1]; time-point 2 hours): 0 CFU/ml
- n = 1 (Log CFU/ml) ([1]; time-point 2 hours): 0 Log CFU/ml
- n = 2 (Log CFU/ml) ([1]; time-point 2 hours): 0 Log CFU/ml
- n = 3 (Log CFU/ml) ([1]; time-point 2 hours): 0 Log CFU/ml
- Average (CFU/ml) ([1]; time-point 4 hours): 0 CFU/ml
- n = 1 (Log CFU/ml) ([1]; time-point 4 hours): 0 Log CFU/ml
- n = 2 (Log CFU/ml) ([1]; time-point 4 hours): 0 Log CFU/ml
- n = 3 (Log CFU/ml) ([1]; time-point 4 hours): 0 Log CFU/ml
- Average (CFU/ml) ([1]; time-point 6 hours): 0 CFU/ml
- n = 1 (Log CFU/ml) ([1]; time-point 6 hours): 0 Log CFU/ml
- n = 2 (Log CFU/ml) ([1]; time-point 6 hours): 0 Log CFU/ml
- n = 3 (Log CFU/ml) ([1]; time-point 6 hours): 0 Log CFU/ml
- Average (CFU/ml) ([1]; time-point 24 hours): 0 CFU/ml
- n = 1 (Log CFU/ml) ([1]; time-point 24 hours): 0 Log CFU/ml
- n = 2 (Log CFU/ml) ([1]; time-point 24 hours): 0 Log CFU/ml
- n = 3 (Log CFU/ml) ([1]; time-point 24 hours): 0 Log CFU/ml
- MIC (NCTC 17978; [3]): 0.25 µg/mL (≈ 0.381 µM)
- +PABN MIC (NCTC 17978): 0.06 µg/mL
- +PABN + Mg MIC (NCTC 17978; [2]): 0.25 µg/mL
- MIC (NCTC 17978; [4]): 0.5 µg/mL (≈ 0.761 µM)
- +PABN MIC (AYE; AYE): 0.125 µg/mL
- +PABN + Mg MIC (AYE; AYE, PABN at 25 μg/ml with 1 mM MgSO4): 0.25 µg/mL
- MIC (AYE; read-out: +CCCP MIC): 0.125 µg/mL (≈ 0.19 µM)
- MIC (AYE; [6]): 1 µg/mL (≈ 1.52 µM)

Compound: COc1cc2c(cc1OCCCC(=O)Nc1cc(C(=O)Nc3ccc4oc(C(=O)N5CCSCC5)cc4c3)n(C)c1)N=C[C@@H]1CCCN1C2=O [PP-A148, (S)-4-(4-((7-methoxy-5-oxo-2,3,5,11a-tetrahydro-1H-benzo-[e]pyrrolo[1,2-a][1,4]diazepin-8-yl)oxy)butanamido)-1-methyl-N-(2-(thiomorpholine-4-carbonyl)benzofuran-5-yl)-1H-pyrrole-2-carboxamide]
- +PABN MIC (PA01): 4 to 8 µg/mL
- MIC (PA01; [4]): 128 µg/mL (≈ 183 µM)
- +PABN MIC (NCTC 13437; NCTC 13437): 0.25 to 2 µg/mL
- MIC (NCTC 13437; [5]): 16 µg/mL (≈ 22.9 µM)
- MIC (M6; [6]): 0.25 to 0.5 µg/mL (≈ 0.358 to 0.716 µM)
- +PABN MIC (M6; M6): 0.125 µg/mL
- MIC (NCTC 13368; [7]): 16 to 32 µg/mL (≈ 22.9 to 45.8 µM)
- +PABN MIC (NCTC 13368; NCTC 13368): 2 to 8 µg/mL
- +PABN MIC (NCTC 17978): 0.125 to 0.5 µg/mL
- MIC (NCTC 17978; [4]): 2 µg/mL (≈ 2.86 µM)
- +PABN MIC (AYE; AYE): 0.125 to 0.5 µg/mL
- MIC (AYE; [6]): 2 µg/mL (≈ 2.86 µM)
- MIC (Psueudomonas GH12): > 128 µg/mL
